The record followed here is publication PMC8151276, “An Integrated Approach toward NanoBRET Tracers for Analysis of GPCR Ligand Engagement” (Molecules, 2021).

Holding throughout (format): binding
For assay [1], the target named is T1, ADORA1 (Homo sapiens, UniProt P30542).
T1 construct: purchased Promega (in-house HiBiT-GPCR construct library, NanoBRET)
T1 sequence (P30542 1-326): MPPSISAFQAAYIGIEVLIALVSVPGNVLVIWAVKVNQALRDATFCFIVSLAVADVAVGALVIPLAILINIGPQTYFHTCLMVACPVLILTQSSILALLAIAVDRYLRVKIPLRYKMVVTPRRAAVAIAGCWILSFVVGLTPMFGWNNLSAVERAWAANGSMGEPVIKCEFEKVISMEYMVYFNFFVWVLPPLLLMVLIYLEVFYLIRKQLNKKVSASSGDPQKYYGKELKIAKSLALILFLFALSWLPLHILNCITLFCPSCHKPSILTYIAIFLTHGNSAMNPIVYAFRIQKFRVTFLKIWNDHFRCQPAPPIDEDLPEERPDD
The assay is described as follows: NanoBRET screen HiBiT-ADORA1 in HEK293. On the procedure: (§1) Each tracer candidate was screened across the entire library of HiBiT-GPCR constructs using NanoBRET as the detection modality. As depicted in Figure 4A, the specificity of interactions was evaluated through decrease in BRET due to competitive displacement of a bound tracer by excess parental compound. Each tracer was analyzed for binding to each HiBiT-GPCR fusion in the absence and in the presence of competing parental compound. Briefly, HEK293 cells were transfected with HiBiT-GPCR constructs diluted into promoterless DNA to reduce expression and maximize translocation to the cell surface. Each tracer candidate was then screened at concentrations of 1 μM and 0.1 μM across cells expressing these fusions. Cells were treated for 1.5 h with tracer either alone or in the presence of 20 μM competing parental compound (i.e., control). BRET was measured upon addition of purified LgBiT and subsequent complementation with HiBiT genetically fused to a GPCR. The specificity of interactions was assessed through a decrease in BRET signal due to competitive displacement of the bound tracer. To further gauge the robustness of these interactions, the fold response over the control (i.e., BRETtracer/BRETcontrol) was calculated. We chose a 1.5-fold response, which translates to ≥7-fold signal over noise as the minimal threshold required to score an interaction as positive. […]. Below we highlight the screening results obtained for our exemplary fluorescent tracers based on Clozapine, Amitriptyline and AZD1283.
(§2) HiBiT-GPCR DNA constructs were diluted in 10 mM Tris pH 8 to a final concentration of 0.01 μg/μL, arrayed in 96-well plates and stored at −20 °C. For transfection, HEK293 cells were suspended in Opti-MEM (without phenol red) supplemented with 2% fetal bovine serum (Seradigm) and 100 units/mL penicillin–streptomycin (Gibco) at a final concentration of 220,000 cells/mL and dispensed into white 96-well plates at 90 μL/well. Subsequent transfections and screens were carried using an Agilent Bravo Automated Liquid Handling Platform. First, the 96-well HiBiT DNA arrays were diluted 25-fold in Opti-MEM (without serum or phenol red) to a final concentration of 0.0004 μg/μL and 20 μL of the diluted DNAs were transferred into new 96-well plates. Next, promoterless carrier DNA (1 μg/μL) was diluted 25-fold (0.04 μg/μL) and then dispensed into the diluted arrays at 20 μL/well. Following brief mixing, Viafect transfection reagent (Promega) diluted 16-fold into Opti-MEM was dispensed into the plates at 40 μL/well. After mixing by pipetting, plates were incubated for 10 min on the pipetting station deck. The DNA-transfection reagent complexes were then added to plates containing cells. To facilitate the screen, 10 μL of DNA-transfection reagent complexes were added in duplicates to the top 4 and bottom 4 rows, resulting in two identical 48-well arrays per plate. Plates with transfected cells were incubated for 18–20 h at 37 °C/5% CO2. A screen of each tracer across the entire library using two different concentrations requires duplicate plates of transfected cells. Depending on the number of tracers being screened, transfections can be scaled up using the same ratios. The next day, for each tracer, four 20× screening solutions in tracer dilution buffer (Promega) were prepared: two duplicates at final concentration of 20 μM and two duplicates at a final concentration of 2 μM. A competing unmodified compound was added to one of each duplicate at a final concentration of 400 μM. The four resulting solutions were diluted 4-fold in Opti-MEM without serum or phenol red to generate 5× solutions (5 µM and 0.5 µM tracer +/− 100 μM competing compound). To screen the library, a BioTek MultiFlo FX liquid dispenser was used to dispense 22.5 µL of tracer solution to the top 4 rows and 22.5 µL tracer + competing compound solution to the 4 bottom rows. Plates were briefly mixed on an orbital shaker and incubated for 1.5 h at room temperature. […]
In general terms: Bioluminescence resonance energy transfer reports proximity on the nanometre scale.

In assay [2] the target is T2, CCR1 (Homo sapiens, UniProt P32246).
T2 construct: purchased Promega (in-house HiBiT-GPCR construct library, NanoBRET)
T2 sequence (P32246 1-355): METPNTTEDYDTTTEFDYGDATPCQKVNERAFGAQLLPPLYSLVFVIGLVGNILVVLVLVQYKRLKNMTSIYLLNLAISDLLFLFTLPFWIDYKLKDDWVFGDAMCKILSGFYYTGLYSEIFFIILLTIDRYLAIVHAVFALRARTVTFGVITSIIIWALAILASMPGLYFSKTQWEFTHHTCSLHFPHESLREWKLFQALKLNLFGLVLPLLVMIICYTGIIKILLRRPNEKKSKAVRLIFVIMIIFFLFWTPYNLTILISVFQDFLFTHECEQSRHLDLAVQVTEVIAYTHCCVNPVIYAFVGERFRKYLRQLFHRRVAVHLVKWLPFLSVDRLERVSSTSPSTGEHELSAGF
As to the kind of experiment: NanoBRET screen HiBiT-CCR1 in HEK293. The procedure:
as §1, §2

The target in assay [3] is T3, CCR3 (Homo sapiens, UniProt P51677).
T3 construct: purchased Promega (in-house HiBiT-GPCR construct library, NanoBRET)
T3 sequence (P51677 1-355): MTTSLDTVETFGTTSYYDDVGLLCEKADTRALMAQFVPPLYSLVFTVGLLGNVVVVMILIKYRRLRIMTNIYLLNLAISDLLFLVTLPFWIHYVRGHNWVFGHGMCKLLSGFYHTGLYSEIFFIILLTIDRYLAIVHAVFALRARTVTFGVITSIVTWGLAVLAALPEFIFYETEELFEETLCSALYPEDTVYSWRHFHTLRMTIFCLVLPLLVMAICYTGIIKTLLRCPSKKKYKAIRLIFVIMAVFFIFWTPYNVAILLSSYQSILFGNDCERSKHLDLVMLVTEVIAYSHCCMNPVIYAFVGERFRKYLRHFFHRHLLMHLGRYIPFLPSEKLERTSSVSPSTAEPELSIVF
As to the kind of experiment: NanoBRET screen HiBiT-CCR3 in HEK293. The procedure:
as §1, §2

Assay [4] concerns the target T4, CCR5 (Homo sapiens, UniProt P51681).
T4 construct: purchased Promega (in-house HiBiT-GPCR construct library, NanoBRET)
As to the kind of experiment: NanoBRET screen HiBiT-CCR5 in HEK293. The procedure:
as §1, §2

The target in assay [5] is T5, PDGFRB (Homo sapiens, UniProt P09619).
T5 construct: purchased Promega (in-house HiBiT-GPCR construct library, NanoBRET)
As to the kind of experiment: NanoBRET screen HiBiT-PDGFRB in HEK293. The procedure:
as §1, §2

T4 sequence (P51681 whole entry): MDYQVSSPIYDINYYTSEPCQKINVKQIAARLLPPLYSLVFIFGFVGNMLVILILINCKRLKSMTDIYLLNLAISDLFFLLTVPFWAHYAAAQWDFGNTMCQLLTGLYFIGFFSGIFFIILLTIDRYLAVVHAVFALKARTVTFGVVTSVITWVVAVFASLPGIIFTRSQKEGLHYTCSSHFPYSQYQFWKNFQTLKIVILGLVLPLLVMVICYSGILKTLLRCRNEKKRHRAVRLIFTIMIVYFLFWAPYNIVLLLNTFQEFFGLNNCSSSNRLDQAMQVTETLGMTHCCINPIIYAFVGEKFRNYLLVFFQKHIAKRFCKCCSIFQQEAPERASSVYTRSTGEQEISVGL
T5 sequence (P09619 33-1106): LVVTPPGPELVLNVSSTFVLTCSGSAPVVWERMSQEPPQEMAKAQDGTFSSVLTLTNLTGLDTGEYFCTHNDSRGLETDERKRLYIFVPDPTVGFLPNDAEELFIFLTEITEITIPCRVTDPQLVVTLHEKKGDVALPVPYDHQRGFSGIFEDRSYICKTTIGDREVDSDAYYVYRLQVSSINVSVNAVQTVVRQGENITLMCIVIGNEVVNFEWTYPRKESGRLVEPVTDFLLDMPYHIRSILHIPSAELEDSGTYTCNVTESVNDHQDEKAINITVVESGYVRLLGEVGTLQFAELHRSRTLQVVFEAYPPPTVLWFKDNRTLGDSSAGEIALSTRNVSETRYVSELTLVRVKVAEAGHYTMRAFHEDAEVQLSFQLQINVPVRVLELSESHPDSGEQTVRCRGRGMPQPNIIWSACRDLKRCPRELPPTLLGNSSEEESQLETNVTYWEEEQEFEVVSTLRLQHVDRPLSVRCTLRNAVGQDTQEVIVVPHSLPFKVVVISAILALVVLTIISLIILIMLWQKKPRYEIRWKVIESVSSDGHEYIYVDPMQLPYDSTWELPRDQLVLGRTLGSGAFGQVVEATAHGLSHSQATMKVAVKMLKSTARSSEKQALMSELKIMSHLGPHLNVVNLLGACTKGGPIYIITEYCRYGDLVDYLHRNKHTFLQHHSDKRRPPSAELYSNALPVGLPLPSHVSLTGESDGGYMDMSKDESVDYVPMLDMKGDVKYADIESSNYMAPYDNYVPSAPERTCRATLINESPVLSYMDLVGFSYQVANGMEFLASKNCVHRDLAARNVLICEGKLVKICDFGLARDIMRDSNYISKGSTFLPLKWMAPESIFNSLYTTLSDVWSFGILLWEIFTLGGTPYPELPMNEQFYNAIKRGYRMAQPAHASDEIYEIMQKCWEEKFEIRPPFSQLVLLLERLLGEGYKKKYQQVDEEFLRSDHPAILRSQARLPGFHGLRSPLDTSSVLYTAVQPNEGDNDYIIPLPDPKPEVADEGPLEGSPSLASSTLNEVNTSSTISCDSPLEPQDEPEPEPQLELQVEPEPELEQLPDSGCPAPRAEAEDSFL

For `CC(C)N(CC[C@H](c1ccccc1)c1cc(CCNC(=O)CCOCCOCCOCCOCCNC(=O)CCc2ccc3n2[B-](F)(F)[N+]2=C(c4ccc[nH]4)C=CC2=C3)ccc1O)C(C)C` [Tolterodine-2-NB590], the “NanoBRET Fold Response” value in assay [1] (ADORA1, tracer 0.1μM) worked out at 0.95; in assay [1] (ADORA1, tracer 1μM) it was 0.99; in assay [2] (CCR1, tracer 0.1μM), 0.97; in assay [2] (CCR1, tracer 1μM), 0.94; in assay [3] (CCR3, tracer 0.1μM) it was 1.63; in assay [3] (CCR3, tracer 1μM), 1.01. Besides, the “NanoBRET Fold Response” value amounted to 1.03 in assay [4] (CCR5, tracer 0.1μM); 1.01 in assay [4] (CCR5, tracer 1μM); 1.22 in assay [5] (PDGFRB, tracer 0.1μM); 0.94 in assay [5] (PDGFRB, tracer 1μM).
Consider `Cc1nc2n(c(=O)c1CCN1CCC(c3noc4cc(F)ccc34)CC1)CCCC2OC(=O)NCCOCCOCCOCCOCCNC(=O)CCc1ccc2n1[B-](F)(F)[N+]1=C(c3ccc[nH]3)C=CC1=C2` (centres unmarked) [Risperidone-2-NB590], for which the “NanoBRET Fold Response” value in assay [1] (ADORA1, tracer 0.1μM) came to 1.04; in assay [1] (ADORA1, tracer 1μM) it was 1.05; in assay [2] (CCR1, tracer 0.1μM) it was 1.00; in assay [2] (CCR1, tracer 1μM), 0.99; in assay [3] (CCR3, tracer 0.1μM), 1.06; in assay [3] (CCR3, tracer 1μM) it was 1.27. Also, the “NanoBRET Fold Response” value in assay [4] (CCR5, tracer 0.1μM) worked out at 0.96; in assay [4] (CCR5, tracer 1μM), 0.90; in assay [5] (PDGFRB, tracer 0.1μM), 1.09; in assay [5] (PDGFRB, tracer 1μM), 0.90.
With `O=C(CCOCCOCCOCCOCCNC(=O)CCc1ccc2n1[B-](F)(F)[N+]1=C(c3ccc[nH]3)C=CC1=C2)NCCCN1CCN(C2=Nc3cc(Cl)ccc3Nc3ccccc32)CC1` [Clozapine-a-2-NB590], the “NanoBRET Fold Response” value is listed as 1.00 in assay [1] (ADORA1, 0.1μM tracer); 1.01 in assay [1] (ADORA1, 1μM tracer); 1.03 in assay [2] (CCR1, 0.1μM tracer); 0.94 in assay [2] (CCR1, 1μM tracer); 0.95 in assay [3] (CCR3, 0.1μM tracer); 0.78 in assay [3] (CCR3, 1μM tracer). Further, the “NanoBRET Fold Response” value in assay [4] (CCR5, 0.1μM tracer) amounted to 1.07; in assay [4] (CCR5, 1μM tracer), 0.90; in assay [5] (PDGFRB, 0.1μM tracer), 1.09; in assay [5] (PDGFRB, 1μM tracer) it was 0.88.
As for `COc1ccc2[nH]c(-c3ccc(CNC(=O)CCOCCOCCOCCOCCNC(=O)CCc4ccc5n4[B-](F)(F)[N+]4=C(c6ccc[nH]6)C=CC4=C5)cc3)c(CCNC(C)=O)c2n1` [AzomelatoninICO9-2-NB590], the “NanoBRET Fold Response” value is on record as 0.91 in assay [1] (0.1μM tracer); 0.94 in assay [1] (1μM tracer); 1.12 in assay [2] (0.1μM tracer); 1.21 in assay [2] (1μM tracer); 1.40 in assay [3] (0.1μM tracer); 1.25 in assay [3] (1μM tracer). Besides, the “NanoBRET Fold Response” value in assay [4] (0.1μM tracer) is reported as 1.31; in assay [4] (1μM tracer), 0.98; in assay [5] (0.1μM tracer) it was 0.80; in assay [5] (1μM tracer), 1.04.
Turning to `CN1CCN(C2=Nc3cc(Cl)ccc3Nc3ccc(CNC(=O)CCOCCOCCOCCOCCNC(=O)CCc4ccc5n4[B-](F)(F)[N+]4=C(c6ccc[nH]6)C=CC4=C5)cc32)CC1` [Clozapine-b-2-NB590], the “NanoBRET Fold Response” value in assay [1] (ADORA1, 0.1μM tracer) came out at 0.99; in assay [1] (ADORA1, 1μM tracer) it was 0.97; in assay [2] (CCR1, 0.1μM tracer), 1.04; in assay [2] (CCR1, 1μM tracer), 0.98; in assay [3] (CCR3, 0.1μM tracer), 0.98; in assay [3] (CCR3, 1μM tracer), 1.00. The “NanoBRET Fold Response” value in assay [4] (CCR5, 0.1μM tracer) is given as 1.05; in assay [4] (CCR5, 1μM tracer) it was 0.92; in assay [5] (PDGFRB, 0.1μM tracer), 1.02; in assay [5] (PDGFRB, 1μM tracer) it was 0.99.
